In this data set the test system is rodent carcinogenicity bioassays, tumor incidence. The data set is described as follows: CCRIS carcinogenicity studies. Summed up:
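NCI-built, expert-reviewed records of carcinogenicity and related test outcomes (mutagenicity, tumor promotion/inhibition) compiled from published and report sources, historical span 1985-2011, not updated.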

Molecules are shown by their SMILES. Activity calls are given as the source filed them. The rule behind the calls is not given here.

On to `O=c1[nH]c(=O)n(O)c2nc[nH]c12`, for which the carcinogen call is “active; positive” (Species: RAT, Strain/Sex: SPRAGUE-DAWLEY/FEMALE, Route: SUBCUTANEOUS, Dose: 3-7 MG/SUSPENDED IN CARBOXYMETHYLCELLULOSE IN SALINE 1/WK FOR 22-26 WK, Tumor Site: Type of Lesion: INJECTION SITE, LIVER: HYPERPLASTIC NODULE OR HEPATOMA); “active; positive” (Species: RAT, Strain/Sex: SPRAGUE-DAWLEY/MALE, Route: SUBCUTANEOUS, Dose: 0, 0.1, 1.0 MG IN CARBOXYMETHYLCELLULOSE 3/WK FOR 8 WK, Dose: 0, 0.1, 1.0 MG IN CARBOXYMETHYLCELLULOSE 3/WK FOR 8 WK, Tumor Site: Type of Lesion: INJECTION SITE: SARCOMA, FIBROMA); “active; positive” (Species: RAT, Strain/Sex: WISTAR/MALE, FEMALE, Route: SUBCUTANEOUS, Dose: 3-7 MG/SUSPENDED IN CARBOXYMETHYLCELLULOSE IN SALINE 1/WK FOR 22-26 WK, Tumor Site: Type of Lesion: INJECTION SITE, LIVER: HYPERPLASTIC NODULE OR HEPATOMA); “active; positive” (Species: RAT, Strain/Sex: WISTAR/MALE, Route: ORAL, Dose: 7 MG IN CARBOXYMETHYLCELLULOSE IN SALINE 1/WK FOR 22 WK, Tumor Site: Type of Lesion: LIVER); “active; positive” (Species: RAT, Strain/Sex: WISTAR/MALE, Route: SUBCUTANEOUS, Dose: 0, 0.1, 1.0 MG IN CARBOXYMETHYLCELLULOSE 3/WK FOR 8 WK, Dose: 0, 0.1, 1.0 MG IN CARBOXYMETHYLCELLULOSE 3/WK FOR 8 WK, Tumor Site: Type of Lesion: INJECTION SITE: SARCOMA, FIBROMA).

For the compound `O=C1c2ccccc2C(=O)c2c(O)c(O)cc(O)c21`, under “Species: RAT, Strain/Sex: F344/MALE, Route: ORAL, Dose: 0, 1% IN DIET FOR 520 D (STUDY DURATION: 520 D), Tumor Site: Type of Lesion: URINARY BLADDER: CARCINOMA”, the carcinogen call was “active; positive”.

As for `CCCCCCCN(C)N=O`, the carcinogen call runs as follows: (Species: HAMSTER, Strain/Sex: SYRIAN/FEMALE, Route: GAVAGE, Dose: 0, 6.8 MG/KG 1/WK FOR 40 WK (TOTAL DOSE: 0; 2.1 MMOL) (STUDY DURATION: LIFETIME), Dose: 0, 6.8 MG/KG 1/WK FOR 40 WK (TOTAL DOSE: 0; 2.1 MMOL) (STUDY DURATION: LIFETIME), Tumor Site: Type of Lesion: LIVER: CHOLANGIOMA, LUNG: ALVEOLAR/BRONCHIAL CARCINOMA, ALVEOLAR/BRONCHIAL ADENOMA, ADENOSQUAMOUS CARCINOMA, NASAL MUCOS, Tumor Site: Type of Lesion: LIVER: CHOLANGIOMA, LUNG: ALVEOLAR/BRONCHIAL CARCINOMA, ALVEOLAR/BRONCHIAL ADENOMA, ADENOSQUAMOUS CARCINOMA, NASAL MUCOS) “active; positive”; (Species: HAMSTER, Strain/Sex: SYRIAN/MALE, Route: GAVAGE, Dose: 0, 6.8 MG/KG 1/WK FOR 40 WK (TOTAL DOSE: 0; 2.1 MMOL) (STUDY DURATION: LIFETIME), Dose: 0, 6.8 MG/KG 1/WK FOR 40 WK (TOTAL DOSE: 0; 2.1 MMOL) (STUDY DURATION: LIFETIME), Tumor Site: Type of Lesion: LIVER: CHOLANGIOMA, HEMANGIOSARCOMA, LUNG: ALVEOLAR/BRONCHIAL CARCINOMA, ALVEOLAR/BRONCHIAL ADENOMA, ADENOSQUAMOUS CARCI) “active; positive”.

`CC(=O)O[C@]1(C(C)=O)CC[C@H]2[C@@H]3C=C(Cl)C4=CC(=O)[C@@H]5C[C@@H]5[C@]4(C)[C@H]3CC[C@@]21C`: the carcinogen call runs as follows: (Species: MOUSE, Strain/Sex: C57BL/FEMALE, Route: ORAL, Dose: 0, 800 PPM IN DIET FOR 97 WK (STUDY DURATION: 97 WK), Tumor Site: Type of Lesion: LIVER: HEPATOCELLULAR ADENOMA, HEPATOCELLULAR CARCINOMA) “active; positive”; (Species: MOUSE, Strain/Sex: C57BL/MALE, Route: ORAL, Dose: 0, 800 PPM IN DIET FOR 104 WK (STUDY DURATION: 104 WK), Tumor Site: Type of Lesion: LIVER: HEPATOCELLULAR ADENOMA, HEPATOCELLULAR CARCINOMA) “active; positive”; (Species: RAT, Strain/Sex: WISTAR/MALE, Route: GAVAGE, Dose: 0, 50 MG/KG IN TAP WATER 1/D FOR 21 D (STUDY DURATION: 79 WK)) “inactive; negative”.

For the compound `C=CCO`, the carcinogen call by setting is: (Species: HAMSTER, Strain/Sex: SYRIAN/MALE, Route: GAVAGE, Dose: 0, 2 MG/WK FOR 60 WK (STUDY DURATION: 92 WK)) “inactive; negative”; (Species: RAT, Strain/Sex: F344/FEMALE, Route: ORAL, Dose: 0, 300 MG/L IN DRINKING WATER 5 D/WK FOR 100 WK (STUDY DURATION: 130 WK)) “inactive; negative”; (Species: RAT, Strain/Sex: F344/MALE, Route: ORAL, Dose: 0, 300 MG/L IN DRINKING WATER 5 D/WK FOR 100 WK (STUDY DURATION: 130 WK)) “inactive; negative”.

As for `Cc1cccc2cccnc12`, the carcinogen call was “inactive; negative” (Species: MOUSE, Strain/Sex: CD-1/FEMALE, Route: INTRAPERITONEAL, Dose: 0, 0.25, 0.5, 1.0 UMOL IN DMSO TO NEWBORN MICE ON DAYS 1, 8 AND 15 OF LIFE RESPECTIVELY (TOTAL DOSE: 1.75 UMOL) (STUDY D, Dose: 0, 0.25, 0.5, 1.0 UMOL IN DMSO TO NEWBORN MICE ON DAYS 1, 8 AND 15 OF LIFE RESPECTIVELY (TOTAL DOSE: 1.75 UMOL) (STUDY D); “inactive; negative” (Species: MOUSE, Strain/Sex: CD-1/MALE, Route: INTRAPERITONEAL, Dose: 0, 0.25, 0.5, 1.0 UMOL IN DMSO TO NEWBORN MICE ON DAYS 1, 8 AND 15 OF LIFE RESPECTIVELY (TOTAL DOSE: 1.75 UMOL) (STUDY D, Dose: 0, 0.25, 0.5, 1.0 UMOL IN DMSO TO NEWBORN MICE ON DAYS 1, 8 AND 15 OF LIFE RESPECTIVELY (TOTAL DOSE: 1.75 UMOL) (STUDY D); “inactive; negative” (Species: RAT, Strain/Sex: F344/MALE,FEMALE, Route: ORAL, Dose: 0.05% IN DIET FOR 2 YR); “inactive; negative” (Species: RAT, Strain/Sex: SPRAGUE-DAWLEY/MALE, Route: SUBCUTANEOUS, Dose: 0, 200 UMOL/KG IN DMSO INTO SUPRASCAPULAR AREA ON DAY 1 OF LIFE FOLLOWED BY 0, 100 UMOL 1/WK AT WK 2-7 THEN 0, 200 UMOL/, Dose: 0, 200 UMOL/KG IN DMSO INTO SUPRASCAPULAR AREA ON DAY 1 OF LIFE FOLLOWED BY 0, 100 UMOL 1/WK AT WK 2-7 THEN 0, 200 UMOL/); “inactive; negative” (Species: SPRAGUE-DAWLEY/MALE, Strain/Sex: SPRAGUE-DAWLEY/FEMALE, Route: SUBCUTANEOUS, Dose: 0, 200 UMOL/KG IN DMSO INTO SUPRASCAPULAR AREA ON DAY 1 OF LIFE FOLLOWED BY 0, 100 UMOL 1/WK AT WK 2-7 THEN 0, 200 UMOL/, Dose: 0, 200 UMOL/KG IN DMSO INTO SUPRASCAPULAR AREA ON DAY 1 OF LIFE FOLLOWED BY 0, 100 UMOL 1/WK AT WK 2-7 THEN 0, 200 UMOL/).

Consider `O=C1CCc2ccccc2O1`, for which the carcinogen call runs as follows: (Species: MOUSE, Strain/Sex: B6C3F1/FEMALE, Route: GAVAGE, Dose: 0, 200, 400, 800 MG/KG IN CORN OIL 1/D 5 D/WK FOR 103 WK (STUDY DURATION: 103 WK), Dose: 0, 200, 400, 800 MG/KG IN CORN OIL 1/D 5 D/WK FOR 103 WK (STUDY DURATION: 103 WK), Tumor Site: Type of Lesion: LIVER: HEPATOCELLULAR ADENOMA, HEPATOCELLULAR ADENOMA OR CARCINOMA) “active; positive”; (Species: MOUSE, Strain/Sex: B6C3F1/MALE, Route: GAVAGE, Dose: 0, 200, 400, 800 MG/KG IN CORN OIL 1/D 5 D/WK FOR 103 WK (STUDY DURATION: 103 WK), Dose: 0, 200, 400, 800 MG/KG IN CORN OIL 1/D 5 D/WK FOR 103 WK (STUDY DURATION: 103 WK)) “inactive; negative”; (Species: RAT, Strain/Sex: F344/FEMALE, Route: GAVAGE, Dose: 0, 150, 300, 600 MG/KG IN CORN OIL 1/D 5 D/WK FOR 103 WK (STUDY DURATION: 103 WK), Dose: 0, 150, 300, 600 MG/KG IN CORN OIL 1/D 5 D/WK FOR 103 WK (STUDY DURATION: 103 WK)) “inactive; negative”; (Species: RAT, Strain/Sex: F344/MALE, Route: GAVAGE, Dose: 0, 150, 300, 600 MG/KG IN CORN OIL 1/D 5 D/WK FOR 103 WK (STUDY DURATION: 103 WK), Dose: 0, 150, 300, 600 MG/KG IN CORN OIL 1/D 5 D/WK FOR 103 WK (STUDY DURATION: 103 WK), Tumor Site: Type of Lesion: KIDNEY (RENAL TUBULE): ADENOMA) “active; positive”.

On to `CC(=O)C=O`, for which the carcinogen call (Species: MOUSE, Strain/Sex: CD-1/FEMALE, Route: DERMAL, Dose: 0, 50 UMOL/0.1 ML DMSO 2/WK FOR 5 WK FOLLOWED 1 WK LATER BY 0.1 ML ACETONE 2/WK FOR 47 WK (STUDY DURATION: 52 WK)) is “inactive; negative”.

The values are drawn from PubChem BioAssay AID1259411 (Chemical Carcinogenesis Research Information System (CCRIS), 2018).
